In patent US6759520B1, “Chimeric analgesic peptides” (priority 1999, dated 2004):
pKd: −log10 of the molar value.

Key:
Sprague Dawley rats [1] = experiment: Tail flick test after intrathecal administration; assay type: in vivo, rat; conditions: for change in analgesia, antagonist alone: control experiment, p>0.05
Description: (§1) ESP7 was tested clinically in rats to determine analgesic effect and tolerance. The classical tail flick test was used to measure pain response and thermal pain was mimicked using a heat source. This system was controlled using standard opioids. The drug was administered with cyclodextran to increase solubility of the peptide in an aqueous solution.
Adult male Sprague Dawley rats (200-250 g) were implanted with chronic indwelling intrathecal catheters using a modified protocol of Yaksh and Rudy, Physiol. Behav., 17: 1031-1036 (1976). […] The rats were anesthetized throughout the surgery with 5.0% isoflurane. The catheter was inserted through the alanto-occipital membrane and into the intrathecal space using a guide wire. Sutures were used to secure the placement of the catheter. The rats were allowed to recover from surgery for 3-4 days and any rats with neurological impairment were not used for analgesic measurements. Rats were housed separately in a 12 hr light-dark cycle with free access to food and water. During their recovery from surgery, rats were habituated to the laboratory environment and analgesic testing apparatus.
For measurement of the thermal anti-nociceptive properties of the peptides of interest, the tail flick test was employed. Rats were first habituated to the tail flick chamber. During testing, the rats were placed in the chamber and a light source, which generated heat, was directed at their tail. The latency to remove the tail was recorded. The baseline latency was approximately 3.5 sec and the cutoff latency was 10 sec to avoid tissue damage. Three measurements were made at each pre- and post-treatment time point and the results were averaged. Responses were expressed as % maximum possible effect: […]
Rats were given doses of 1.0 μg (FIG. 5), 0.2 μg (FIG. 6), and 0.05 μg (FIG. 7) of ESP7. The desired concentration of the compound (in 10 μl) was injected into the catheter followed by 10 μl saline flush to fill the dead volume. ESP7 was combined with two molecules of cyclodextrin (ESP7+2CD) to increase solubility. […]

μ receptor = target: T1, μ receptor (Rattus norvegicus, UniProt P33535); experiment: μ receptor binding assay, [3H]DAMGO competition, crude rat brain plasma membranes
T1 construct: frozen rat brains (−80° C.) were homogenized in 40 volumes of standard Tris buffer; from tissue; host or cells: rat brain (crude plasma membranes)
T1 sequence (P33535 whole entry): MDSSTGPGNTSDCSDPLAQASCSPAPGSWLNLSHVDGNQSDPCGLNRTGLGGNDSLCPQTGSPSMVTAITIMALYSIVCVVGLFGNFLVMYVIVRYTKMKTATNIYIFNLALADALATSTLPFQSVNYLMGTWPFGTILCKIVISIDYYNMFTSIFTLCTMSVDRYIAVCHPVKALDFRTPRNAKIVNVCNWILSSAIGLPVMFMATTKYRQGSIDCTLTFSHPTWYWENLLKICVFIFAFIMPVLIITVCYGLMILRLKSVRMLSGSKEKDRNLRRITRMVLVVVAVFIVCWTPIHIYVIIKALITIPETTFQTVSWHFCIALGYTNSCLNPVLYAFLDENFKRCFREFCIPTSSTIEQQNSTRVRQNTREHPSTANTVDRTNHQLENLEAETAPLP
Description: For binding assays to opioid receptors, frozen rat brains (−80° C.) were homogenized in 40 volumes of standard Tris buffer (50 mM Tris HCl (pH 7.4), 0.2 mg/ml BSA, 2.5 mM EDTA, 40 μg/ml bacitracin, 30 μg/ml bestatin and 5 mM MgCl2) and centrifuged at 15,000×g for 20 minutes. 100 mM NaCl was added to the buffer, in order to remove endogenous ligands, and the centrifugation was repeated. After a wash with standard buffer, the membrane preparation was finally resuspended in 10 volumes of incubation buffer (standard buffer with 4 μg/ml leupeptin and 2 μg/ml chymostatin). […] The brain homogenates were used on the day of preparation.
Binding assays for the μ receptor were performed at 4° C. for 90 minutes, as described in Zadina et al., Life Sci, 55: 461-466 (1994). […] After incubation the samples were filtered on a Brandell-Harvester using an appropriate GF/B filter soaked in 50 mM Tris HCl (pH 7.4) and 0.5% PEI. Scintillation fluid was added to the filters in order to solubilize the membranes, and a beta-counter was used to quantify radioactivity.

Sprague Dawley rats [2] = experiment: Tail flick test after intracerebroventricular administration; assay type: in vivo, rat; conditions: 1.0 μg intracerebroventricular; data not shown
Description: as §1
Adult male Sprague Dawley rats weighing 200-250 g were used. Before surgery, the rats were anesthesized with 0.2-0.3 mL of xylazine (10%) and ketamine (90%). Rats were positioned in a stereotaxic apparatus and the bregma was located. To reach the lateral ventricle, a hole was drilled 0.8 mm caudal and 1.4-1.5 mm left or right of the bregma. The catheter was inserted 4.5 mm deep into the brain and 4.0 cm of polyethylene tubing was connected to the end to the catheter. Screws and dental cement were used to secure the catheter in place. After suturing the skin, the rats were allowed to recover from surgery for 4-5 days. Each rat was housed separately in a 12 hr light-dark cycle with free access to food and water. Rats with any neurological problems were not used in the analgesic testing.
The tail flick assay was used to measure analgesia as described above in Example 2.1. Briefly, the rats were first habituated to the tail flick chamber. […] The latency to remove the tail was recorded. […] Responses were expressed as % maximum possible effect (MPE): [formula]

rats = experiment: Tail flick test after intraperitoneal administration; assay type: in vivo, rat; conditions: 1 mg intraperitoneal
Description: as §1
ESP7 was administered intraperitoneally in order to assess the effectiveness of ESP7 systemically. The tail flick assay was used to measure analgesia as described above in Example 2.1. Briefly, the rats were first habituated to the tail flick chamber. During testing, the rats were placed in the chamber and a light source, which generated heat, was directed at their tail. The latency to remove the tail was recorded. The baseline latency was approximately 3.5 sec and the cutoff latency was 10 sec to avoid tissue damage. Three measurements were made at each pre- and post-treatment time point and the results were averaged. Responses were expressed as % maximum possible effect (MPE): [formula]

NK1 receptor = target: T2, NK1 receptor (Rattus norvegicus, UniProt P14600); experiment: SP (NK1) receptor binding assay, [125I]BH-SP competition, crude rat brain plasma membranes
T2 construct: The same procedure was followed for the SP receptor except the wash with NaCl was eliminated; from tissue; host or cells: rat brain (crude plasma membranes)
T2 sequence (P14600 whole entry): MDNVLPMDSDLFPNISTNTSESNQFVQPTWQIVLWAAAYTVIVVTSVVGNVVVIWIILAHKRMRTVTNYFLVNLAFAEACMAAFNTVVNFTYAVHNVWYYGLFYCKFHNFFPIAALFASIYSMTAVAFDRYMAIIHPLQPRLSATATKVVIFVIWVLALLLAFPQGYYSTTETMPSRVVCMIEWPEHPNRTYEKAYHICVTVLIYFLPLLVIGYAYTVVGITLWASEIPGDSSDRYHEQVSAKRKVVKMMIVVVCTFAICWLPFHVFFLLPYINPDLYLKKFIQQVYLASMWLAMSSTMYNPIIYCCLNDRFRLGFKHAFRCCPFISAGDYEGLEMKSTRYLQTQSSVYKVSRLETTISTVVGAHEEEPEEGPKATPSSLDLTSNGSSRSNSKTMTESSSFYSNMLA

Compound | change in analgesia, antagonist alone (Sprague Dawley rats [1]) | pKd (μ receptor) | analgesia (tail flick, % MPE) (Sprague Dawley rats [2]) | analgesia (tail flick, % MPE) (rats) | pKd (NK1 receptor) | hyperalgesia when naltrexone is given with ESP7+2CD (Sprague Dawley rats [1]; naltrexone with 0.2 μg and 1.0 μg ESP7+2CD intrathecal)
COc1ccccc1CC(=N)N1C[C@@H]2C(=O)CCC(c3ccccc3)(c3ccccc3)[C@@H]2C1 [RP67580] | no effect on the level of analgesia | – | – | – | – | –
H-YPFFGLM-NH2 [ESP7, Tyr-Pro-Phe-Phe-Gly-Leu-Met-NH2] | – | ~6.52 | produced analgesia | produced analgesia as seen with intrathecal administration | ~6.70 | –
O=C1CC[C@@]2(O)[C@H]3Cc4ccc(O)c5c4[C@@]2(CCN3CC2CC2)[C@H]1O5 [naltrexone] | produced no change in analgesia | – | – | – | – | produced some hyperalgesia
